{"source": "patent US5670521A", "about": "“Reversal of multi-drug resistance by triphenyl-azacycloalkane derivatives” (Merrell Pharmaceuticals Inc., priority 1996, dated 1997)", "test_system": "KBV1 cells", "settings": "KBV1 vs wild type KB cells", "experimental": "The ability of compounds of this invention to reverse multi drug resistance can be determined using standard test procedures. The ability of the test compounds to inhibit the growth of multidrug resistant human epidermoid carcinoma (KBV1) cells in the presence of both Vinblastine and the compound was determined."}
{"smiles": "CC[C@]1(O)C[C@@H]2CN(CCc3c([nH]c4ccccc34)[C@@](C(=O)OC)(c3cc4c(cc3OC)N(C)[C@H]3[C@@](O)(C(=O)OC)[C@H](OC(C)=O)[C@]5(CC)C=CCN6CC[C@]43[C@@H]65)C2)C1", "note": "[Vinblastine]", "values": [{"measurement": "resistance to vinblastine compared to wild type KB cells", "result": "at least 1,000 times"}]}
